According to US20240182460A1, “ALLOSTERIC CHROMENONE INHIBITORS OF PHOSPHOINOSITIDE 3-KINASE (PI3K) FOR THE TREATMENT OF DISEASE” (PETRA PHARMA CORPORATION, priority 2022, published 2024):
pIC50: −log10 of the molar value.

What was measured:
PI3Kα E545K = PI3Kα E545K (Homo sapiens, UniProt P42336, E545K); assay: PI3Kα E545K mutant in vitro cell based assay, MDA-MB-361 cells; design: MDA-MB-361 (ATCC-HTB-27) cell line (PI3Kα E545K); host or cells: MDA-MB-361; details: MDA-MB-361 cell line, 0% FBS, no insulin, 3 hours treatment
Outline: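 MDA-MB-361 cells (PI3Kα E545K) seeded in serum-free MEM assay medium without insulin, attached overnight, then treated 3 h with compound (10-point 1:3 series, 0.3% DMSO). AlphaLISA SureFire readout of lysates. IC50 by 4-parameter fit, normalized to DMSO (max) and 1 μM GDC-0032 (min).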

PI3Kα H1047R = target: T1, PI3Kα H1047R (Homo sapiens, UniProt P42336, H1047R); assay: PI3Kα H1047R mutant in vitro cell based assay, MDA-MB-453 cells (AlphaLisa SureFire); details: MDA-MB-453 cell line, 0% FBS, 3 hours treatment
T1 construct: The MDA-MB-453 (ATCC-HTB-131) cell line (PI3Kα H1047R); host or cells: MDA-MB-453
Excerpt: PI3K-Alpha Kinase (PI3Kα) Activity: Wild-Type PI3Kα, H1047R Mutant PI3Kα, and E545K Mutant PI3Kα In Vitro Cell Based Assays and Determination of IC50 Values for Inhibitors
The MDA-MB-453 (ATCC-HTB-131) cell line (PI3Kα H1047R) and MCF-7 (ATCC-HTB-22) cell line (PI3Kα E545K), MDA-MB-361 (ATCC-HTB-27) cell line (PI3Kα E545K), and SKBR3 (ATCC-HTB-30) cell line (wild type PI3Kα) were obtained from the American Type Culture Collection (Manassas, VA). MDA-MB-453 cells were maintained in Dulbecco's Modified Eagle Media (DMEM, Gibco 12430) supplemented with 10% Fetal Bovine Serum, heat inactivated (FBS HI, Gibco 10082), 1× non-essential amino acids (NEAA, Gibco 11140), 1 mM sodium pyruvate (Gibco 11360) and 1× Anti-Anti (Gibco 15240). MCF-7 cells were maintained in Minimum Essential Media (MEM) (Gibco 11095) supplemented with 10% Fetal Bovine Serum, heat inactivated (FBS HI, Gibco 10082), 1× non-essential amino acids (NEAA, Gibco 11140), 1 mM sodium pyruvate (Gibco 11360), 1× Anti-Anti (Gibco 15240) and 10 μg/mL human insulin (Sigma I 9278). MDA-MB-361 cells were maintained in Dulbecco's Modified Eagle Media (DMEM, Gibco 12430) supplemented with 20% Fetal Bovine Serum, heat inactivated (FBS HI, Gibco 10082), 1× non-essential amino acids (NEAA, Gibco 11140), 1 mM sodium pyruvate (Gibco 11360) and 1× Anti-Anti (Gibco 15240). SKBR3 cells were maintained in McCoy's 5A (Gibco 16600) supplemented with 10% Fetal Bovine Serum, heat inactivated (FBS HI, Gibco 10082), and 1× Anti-Anti (Gibco 15240). Cultures were maintained in a humidified incubator at 37° C. under 5% CO2/95% air.
For compound testing in 0% FBS, MDA-MB-453, MCF-7 and SKBR3 cells were seeded at a density of 1.5×10^4, 1.0×10^4, and 1.0×10^4 cells, respectively, per well in white 384-well plates in 20 μl of Minimum Essential Media (MEM) assay media with 1×NEAA, 1 mM sodium pyruvate, and 1 μg/mL human insulin (Sigma 19278) (Assay Medium); while MDA-MB-361 cells were seeded at a density of 1.5×10^4 per well in white 384-well plates in 20 μl Assay Medium without insulin. After plating, cells were allowed to attach overnight. Compounds dissolved in 10 mM stock solutions in DMSO were serially diluted 1:3 in DMSO to generate a 10-point dilution series and plated using an acoustic liquid handler system (Echo 550 Series Liquid Handler, Labcyte). A 5× intermediate compound dilution plate in MEM with 1×NEAA and 1 mM sodium pyruvate (150 μM starting compound concentration in 1.5% DMSO) was then prepared. Five μl of the intermediate serially diluted compounds were added to the cell plate to final concentrations ranging from […] in 0.3% DMSO. 0.3% DMSO alone was used to establish the maximum (MAX) signal and GDC-0032 at a final concentration of 1 μM was used as a reference compound for the minimum (MIN) signal. After 3 hours treatment, the medium was removed, and the cells were lysed in 10 μL of 1× SureFire Lysis buffer with shaking for 10 minutes at room temperature. The Acceptor Mix (Reaction Buffer 1+Reaction Buffer 2+Activation Buffer+SureFire Ultra Acceptor Beads) was prepared by diluting Activation buffer 25-fold in combined Reaction Buffer 1 and Reaction Buffer 2.
The Acceptor beads were diluted 50-fold in the combined Reaction Buffers. Five μL of Acceptor Mix was added to each well, the plate was sealed and covered with foil and incubated for 1 hour at room temperature. The Donor Mix (dilution buffer+SureFire Ultra Donor Beads) was prepared by diluting Donor Beads 50-fold in dilution buffer. Five μL of the Donor Mix was added to each well and the plate sealed and covered with foil and incubated for 1-2 hours at room temperature in the dark. The plates were read on a Neo2 plate reader instrument from Biotek using standard AlphaLisa settings.
Compounds were tested in duplicate and the % inhibition at each compound concentration was used to generate two dose response curves. One IC50 was generated using average % inhibition at each compound concentration. […]

Sequence of PI3Kα E545K (P42336 whole entry E545K): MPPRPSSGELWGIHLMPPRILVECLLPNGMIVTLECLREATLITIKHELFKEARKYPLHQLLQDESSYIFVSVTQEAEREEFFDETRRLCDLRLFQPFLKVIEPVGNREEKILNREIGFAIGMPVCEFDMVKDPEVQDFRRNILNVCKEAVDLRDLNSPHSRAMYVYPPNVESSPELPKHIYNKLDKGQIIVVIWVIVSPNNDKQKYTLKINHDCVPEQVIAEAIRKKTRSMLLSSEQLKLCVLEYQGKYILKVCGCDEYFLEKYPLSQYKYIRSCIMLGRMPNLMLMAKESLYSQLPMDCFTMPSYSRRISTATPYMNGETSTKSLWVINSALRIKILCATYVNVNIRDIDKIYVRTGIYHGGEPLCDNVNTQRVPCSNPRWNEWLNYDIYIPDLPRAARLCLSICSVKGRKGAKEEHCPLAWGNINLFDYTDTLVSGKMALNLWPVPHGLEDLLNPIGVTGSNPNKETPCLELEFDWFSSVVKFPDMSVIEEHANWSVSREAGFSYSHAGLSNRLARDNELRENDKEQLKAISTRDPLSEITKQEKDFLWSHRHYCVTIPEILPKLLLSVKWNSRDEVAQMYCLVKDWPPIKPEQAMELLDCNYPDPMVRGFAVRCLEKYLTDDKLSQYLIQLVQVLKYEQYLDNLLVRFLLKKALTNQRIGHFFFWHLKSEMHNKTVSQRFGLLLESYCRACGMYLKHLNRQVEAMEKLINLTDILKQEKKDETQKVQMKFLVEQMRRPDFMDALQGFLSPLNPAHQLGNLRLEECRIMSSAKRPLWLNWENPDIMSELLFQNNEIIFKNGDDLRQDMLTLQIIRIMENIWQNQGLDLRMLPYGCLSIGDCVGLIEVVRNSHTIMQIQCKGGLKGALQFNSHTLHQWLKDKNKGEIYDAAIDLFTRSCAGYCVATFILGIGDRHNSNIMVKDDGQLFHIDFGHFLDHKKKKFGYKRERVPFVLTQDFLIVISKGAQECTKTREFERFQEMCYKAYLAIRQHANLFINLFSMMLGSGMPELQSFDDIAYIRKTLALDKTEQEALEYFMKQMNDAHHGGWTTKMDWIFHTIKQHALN
Sequence of PI3Kα E545K (P27986 whole entry partner): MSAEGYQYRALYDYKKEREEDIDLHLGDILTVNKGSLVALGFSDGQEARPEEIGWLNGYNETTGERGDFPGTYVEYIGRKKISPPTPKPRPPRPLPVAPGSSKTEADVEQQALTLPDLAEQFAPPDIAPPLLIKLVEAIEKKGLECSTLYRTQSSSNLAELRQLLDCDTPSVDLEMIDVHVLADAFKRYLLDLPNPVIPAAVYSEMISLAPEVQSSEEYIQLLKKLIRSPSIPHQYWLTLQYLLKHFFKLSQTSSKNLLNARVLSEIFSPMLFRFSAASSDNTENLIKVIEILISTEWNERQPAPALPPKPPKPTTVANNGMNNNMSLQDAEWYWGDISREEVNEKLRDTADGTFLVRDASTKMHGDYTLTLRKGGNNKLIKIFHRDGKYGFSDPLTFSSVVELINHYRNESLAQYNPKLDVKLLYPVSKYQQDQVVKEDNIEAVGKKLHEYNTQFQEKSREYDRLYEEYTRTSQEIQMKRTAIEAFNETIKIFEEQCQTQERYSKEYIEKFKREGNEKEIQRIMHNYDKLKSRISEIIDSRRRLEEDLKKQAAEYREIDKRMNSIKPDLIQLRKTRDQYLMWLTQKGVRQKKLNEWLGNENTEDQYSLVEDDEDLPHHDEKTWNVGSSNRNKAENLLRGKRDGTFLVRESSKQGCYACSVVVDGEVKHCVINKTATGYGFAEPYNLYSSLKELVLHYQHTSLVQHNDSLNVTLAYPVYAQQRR
T1 sequence (P42336 whole entry H1047R): as the sequence (P42336 whole entry E545K) above, with K545E, H1047R counted along it
T1 sequence (P27986 whole entry partner): as the sequence (P27986 whole entry partner) above

pIC50 (PI3Kα E545K) | pIC50 (PI3Kα H1047R) | SMILES
> 6.30 | > 7.00 | Cc1cc([C@@H](C)Oc2ccc(Cl)nc2C(N)=O)c2oc(-c3cnn4c3OCC4(C)C)c(C)c(=O)c2c1 [Example 65C, 6-Chloro-3-[(1R)-1-[2-(3,3-dimethyl-2H-pyrazolo[5,1-b]oxazol-7-yl)-3,6-dimethyl-4-oxo-chromen-8-yl]ethoxy]pyridine-2-carboxamide]
> 6.30 | > 7.00 | Cc1cc([C@@H](C)Oc2ccc(Cl)nc2C(N)=O)c2oc(-c3cnn4c3CCC4)c(C)c(=O)c2c1 [Example 123A, 6-Chloro-3-[(1R)-1-[2-(5,6-dihydro-4H-pyrrolo[2,1-e]pyrazol-3-yl)-3,6-dimethyl-4-oxo-chromen-8-yl]ethoxy]pyridine-2-carboxamide]
> 6.30 | > 7.00 | Cc1cc([C@@H](C)Oc2ccc(Cl)nc2C(N)=O)c2oc(-c3cnn4c3OCC4)c(C)c(=O)c2c1 [Example 36C, 6-Chloro-3-[(1R)-1-[2-(2,3-dihydropyrazolo[5,1-b]oxazol-7-yl)-3,6-dimethyl-4-oxo-chromen-8-yl]ethoxy]pyridine-2-carboxamide]
> 6.30 | > 7.00 | Cc1cc([C@@H](C)Oc2ccc(Cl)nc2-c2noc(=O)[nH]2)c2oc(-c3ccc4c(c3)OCCN4C)c(C)c(=O)c2c1 [Example 48A, 3-[6-Chloro-3-[(1R)-1-[3,6-dimethyl-2-(4-methyl-2,3-dihydro-1,4-benzoxazin-7-yl)-4-oxo-chromen-8-yl]ethoxy]-2-pyridyl]-4H-1,2,4-oxadiazol-5-one]
> 6.30 | > 7.00 | Cc1cc([C@@H](C)Oc2ccc(Cl)nc2S(N)(=O)=O)c2oc(-c3cnn(CCO)c3)c(C)c(=O)c2c1 [Example 61A, 6-Chloro-3-[(1R)-1-[2-[1-(2-hydroxyethyl)pyrazol-4-yl]-3,6-dimethyl-4-oxo-chromen-8-yl]ethoxy]pyridine-2-sulfonamide]
> 6.30 | > 7.00 | Cc1cc([C@@H](C)Oc2ccc(Cl)nc2S(N)(=O)=O)c2oc(-c3cnn(CCS(C)(=O)=O)c3)c(C)c(=O)c2c1 [Example 90C, 6-Chloro-3-[(1R)-1-[3,6-dimethyl-2-[1-(2-methylsulfonylethyl)pyrazol-4-yl]-4-oxo-chromen-8-yl]ethoxy]pyridine-2-sulfonamide]
> 6.30 | > 7.00 | Cc1cc([C@@H](C)Oc2ccc(Cl)nc2C(N)=O)c2oc(-c3ccc4nn(CF)cc4c3)c(C)c(=O)c2c1 [Example 66C, 6-Chloro-3-[(1R)-1-[2-[2-(fluoromethyl)indazol-5-yl]-3,6-dimethyl-4-oxo-chromen-8-yl]ethoxy]pyridine-2-carboxamide]
> 6.30 | > 7.00 | Cc1cc([C@@H](C)Oc2ccc(Cl)nc2C(N)=O)c2oc(-c3ccc4nc(C)oc4c3)c(C)c(=O)c2c1 [Example 53C, 6-Chloro-3-[(1R)-1-[3,6-dimethyl-2-(2-methyl-1,3-benzoxazol-6-yl)-4-oxo-chromen-8-yl]ethoxy]pyridine-2-carboxamide]
> 6.30 | > 7.00 | Cc1cc([C@@H](C)Oc2ccc(Cl)nc2C(N)=O)c2oc(-c3ccc4nc(C)cn4c3)c(C)c(=O)c2c1 [Example 57A, 6-Chloro-3-[(1R)-1-[3,6-dimethyl-2-(2-methylimidazo[1,2-a]pyridin-6-yl)-4-oxo-chromen-8-yl]ethoxy]pyridine-2-carboxamide]
> 6.30 | > 7.00 | Cc1cc([C@@H](C)Oc2ccc(Cl)nc2C(N)=O)c2oc(-c3cc(F)c4nc(C)cn4c3)c(C)c(=O)c2c1 [Example 38C]
 | > 7.00 | Cc1cc([C@@H](C)Oc2ccc(Cl)nc2-c2noc(=O)[nH]2)c2oc(-c3cnc4c(c3)OCCN4C)c(C)c(=O)c2c1 [Example 49A, 3-[6-Chloro-3-[(1R)-1-[3,6-dimethyl-2-(4-methyl-2,3-dihydropyrido[3,2-b][1,4]oxazin-7-yl)-4-oxo-chromen-8-yl]ethoxy]-2-pyridyl]-4H-1,2,4-oxadiazol-5-lone]
